# Assay results from US20110178179A1, “1-AMINO-ALKYLCYCLOHEXANE DERIVATIVES FOR THE TREATMENT OF COGNITIVE IMPAIRMENT IN TINNITUS” (MERZ PHARMA GmbH & CO. KGaA, priority 2008, published 2011).
# What was measured:
# [1] = system: subjects with subjective tinnitus of at least moderate severity; assay: Double-blind placebo-controlled pilot trial of neramexane in tinnitus: THF-12 (TBF-12) questionnaire; format: in vivo, human; details: for TBF-12 functional-communicational score, Actual Mean ± SD / TBF-12 functional-communicational score, Neramexane - Placebo LSMean Diff. ± SE / TBF-12 functional-communicational score, Change Mean ± SD / TBF-12 functional-communicational score, Change LSMean: ITT-LOCF; for TBF-12 functional-communicational score, Change Mean ± SD / TBF-12 functional-communicational score, Change LSMean: baseline to Week 16; for TBF-12 functional-communicational score, Change LSMean: ANCOVA
# Method: The objective of this pilot project was to conduct a clinical trial to assess the efficacy of neramexane as a treatment for tinnitus. The primary objective of this study was to compare the efficacy, tolerability and safety of neramexane mesylate at three different dosages (25, 50 or 75 mg/d) with placebo in subjects with subjective tinnitus of at least moderate severity.
# (§1) In a double-blind, multicenter, randomized, placebo-controlled, parallel-group study, the efficacy of neramexane in subjects suffering from tinnitus of at least moderate severity was assessed. Approximately 100 patients, who fulfilled particular inclusion criteria and met none of particular exclusion criteria, were randomized to each of four double-blind treatment groups (neramexane mesylate 25, 50, 75 mg/d or placebo), resulting in approximately 400 patients in total.
# (§2) The double-blind, 16-week treatment period consisted of a 4-week uptitration period and a 12-week fixed-dose treatment period at maintenance b.i.d. dosing. In case of poor tolerability, however, the investigator could consider a dose reduction by 25 mg/d (or placebo, respectively). After the treatment phase, there was a 4-week follow-up period with no active treatment and concomitant therapy restrictions. In total, this study involved seven study visits: screening, baseline, and at the end of weeks 4, 8, 12, 16, and 20.
# Visit 1 (screening): After signing the consent form, the subject underwent a physical examination and clinical laboratory testing. Patient eligibility for the study was evaluated via a check of inclusion/exclusion criteria. An initial Tinnitus Interview was conducted. The subject also completed a Tinnitus-Beeinträchtigungs-Fragebogen (THF-12) (i.e., a 12-item German modified and validated version (Greimel K V et al., Tinnitus-Beeinträchtigungs-Fragebogen (THF-12). Manual. Frankfurt am Main: Swets & Zeitlinger B. V.; 2000) of the 25-item Tinnitus Handicap Inventory or THI (Newman C W, et al. Development of the Tinnitus Handicap Inven-tory. Arch Otolaryngol Head Neck Surg 1996; 122(2): 143-148; Newman C W, et al. Psychometric adequacy of the Tinnitus Handicap Inventory (THI) for evaluating treatment outcome. J Am Acad Audiol 1998; 9(2): 153-160.)), a Hospital Anxiety and Depression Scale—Depression Subscale (HADS-D) Questionnaire and a Hyperacusis (Geräuschüberempfindlichkeit-Fragenbogen (GÜF)) Questionnaire (if applicable).
# (§3) Study medication was dispensed at Visit 2 (baseline, day 0). Each patient received one blister box containing 5 blister cards (including one reserve blister) of double-blind study medication (i.e., […]). Subjects were instructed to take 2 tablets twice daily (4 tablets/d), beginning the day after dispensing of the study medication, until they returned for their next study visit (Visit 3). For those subjects assigned to receive active medication, some placebo tablets were incorporated into the dosing regimen to ensure blinding during the uptitration period. The target fixed-maintenance dose of 25, 50, or 75 mg neramexane mesylate/d was administered starting with the fifth week of double-blind treatment and was continued throughout the study. At each of the subsequent visits (Visits 3, 4, and 5, corresponding to end of week 4, 8 and 12) patients received another blister box containing 5 blister cards for the 4 week intervals, with double-blind medication for the intervening treatment period until the next study visit.
# Primary Outcome • The change in THF-12 total score from baseline (Visit 2) to the endpoint visit (Visit 6, i.e. Week 16) was the primary efficacy endpoint in this study. […]
# [2] = system: subjects with subjective tinnitus of at least moderate severity; assay: Double-blind placebo-controlled pilot trial of neramexane in tinnitus: structured tinnitus interview, question 12/5 (concentration); format: in vivo, human; details: for Concentration: Affected (%) / Concentration: Affected n / Concentration: No effect (%) / Concentration: No effect n / Concentration: Prevented (%) / Concentration: Prevented n: ITT-LOCF
# Method: as §1, §2, §3
# Secondary Outcomes • THF-12 total score (values and absolute change from baseline) at all post-baseline visits except the endpoint visit. • Change in the THF-12 total score from Week 16 to Week 20 (values and absolute changes). • THF-12 factorial scores (values and absolute change from baseline, including the change from Week 16 to Week 20) at all post-baseline visits. • Hyperacusis questionnaire GÜF (“Geräuschüberempfindlichkeits-Fragebogen”), values and absolute change from baseline, including the change from Week 16 to Week 20, total and factorial scores at all post-baseline visits if hyperacusis was present. • Clinical global impression of change: item 27 of the tinnitus follow-up interview was summarized after dichotomization of the responses in any improvement (values 1, 2, 3) versus no improvement (values 4, 5, 6, 7) and in marked improvement (values 1, 2) versus no marked improvement (values 3, 4, 5, 6, 7). • Total score of HADS-D as well as the depression and anxiety subscale scores (values and absolute change from baseline, also the change from week 16 to week 20) at all post-baseline visits. • Values of tinnitus interview (initial and follow-up) at all post-baseline visits; absolute change from baseline and change from Week 16 to Week 20 for items 8, 9, 10, 19, 20, 21, 24, 25 and 26 of the follow-up interview.
# All efficacy analyses were performed on the ITT population using the last-observation-carried-forward (LOCF) approach. For sensitivity purposes an analysis of the per-protocol set and of observed cases was performed additionally. All statistical tests used for testing the primary efficacy (confirmatory testing) and secondary efficacy criteria (exploratory), and all other statistical tests used for exploratory analyses were two-sided hypothesis tests performed at the 5% significance level. For all variables standard descriptive statistics were calculated.
# [3] = target: α9/α10 nicotinic receptor (Rattus norvegicus, UniProt P43144+Q9JLB5); details: Plazas, et al., Eur J. Pharmacol., 2007; cited from earlier work
# α9/α10 nicotinic receptor, sequence (P43144 26-479): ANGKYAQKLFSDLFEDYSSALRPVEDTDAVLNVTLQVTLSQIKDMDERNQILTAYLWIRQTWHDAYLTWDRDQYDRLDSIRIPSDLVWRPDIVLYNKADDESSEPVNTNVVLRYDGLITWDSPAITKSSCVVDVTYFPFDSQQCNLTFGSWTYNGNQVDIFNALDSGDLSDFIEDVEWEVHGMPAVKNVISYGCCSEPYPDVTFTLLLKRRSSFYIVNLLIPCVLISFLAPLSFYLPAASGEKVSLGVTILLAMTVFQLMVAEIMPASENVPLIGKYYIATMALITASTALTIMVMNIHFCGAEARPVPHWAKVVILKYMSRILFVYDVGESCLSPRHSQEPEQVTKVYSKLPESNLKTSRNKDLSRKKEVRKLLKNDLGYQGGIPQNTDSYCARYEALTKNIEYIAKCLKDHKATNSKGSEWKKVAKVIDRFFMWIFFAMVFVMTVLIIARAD
# α9/α10 nicotinic receptor, sequence (Q9JLB5 25-447): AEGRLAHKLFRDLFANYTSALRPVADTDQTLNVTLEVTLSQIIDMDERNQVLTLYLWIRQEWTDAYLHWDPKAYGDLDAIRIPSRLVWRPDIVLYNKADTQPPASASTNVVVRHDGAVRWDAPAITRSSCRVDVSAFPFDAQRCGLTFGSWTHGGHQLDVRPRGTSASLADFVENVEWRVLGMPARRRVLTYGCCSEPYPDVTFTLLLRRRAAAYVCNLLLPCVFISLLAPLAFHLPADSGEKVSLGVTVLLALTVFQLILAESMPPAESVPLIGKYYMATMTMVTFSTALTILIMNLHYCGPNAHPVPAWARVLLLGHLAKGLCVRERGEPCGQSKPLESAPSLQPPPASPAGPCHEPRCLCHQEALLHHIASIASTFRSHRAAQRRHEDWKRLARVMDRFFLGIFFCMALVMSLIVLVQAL
# [4] = Baseline, 25 mg/d group, N = 106
# [5] = Baseline, 50 mg/d group, N = 106
# [6] = Baseline, 75 mg/d group, N = 99
# [7] = Week 16 or end of treatment, 25 mg/d, N = 101
# [8] = Week 16 or end of treatment, 50 mg/d, N = 103
# [9] = Week 16 or end of treatment, 75 mg/d, N = 93
# [10] = final daily doses of 50 or 75 mg, 16 weeks, distinct from placebo or low-dose (25 mg)
structure (smiles),measurement,setting,value
"CC1(C)CC(C)(C)CC(C)(N)C1 [Neramexane, 1-amino-1,3,3,5,5-pentamethylcyclohexane]","TBF-12 functional-communicational score, Actual Mean ± SD","[1]; Baseline, 25 mg/d group, n=106",5.0 ± 2.1
same,"TBF-12 functional-communicational score, Actual Mean ± SD","[1]; Baseline, 50 mg/d group, n=106",5.2 ± 1.9
same,"TBF-12 functional-communicational score, Actual Mean ± SD","[1]; Baseline, 75 mg/d group, n=99",5.1 ± 2.2
same,"TBF-12 functional-communicational score, Neramexane - Placebo LSMean Diff. ± SE","[1]; Week 16, 25 mg/d vs placebo",0.0 ± 0.2
same,"TBF-12 functional-communicational score, Actual Mean ± SD","[1]; Week 16, 25 mg/d, n=106",4.3 ± 2.5
same,"TBF-12 functional-communicational score, Neramexane - Placebo LSMean Diff. ± SE","[1]; Week 16, 50 mg/d vs placebo",−0.5 ± 0.2
same,"TBF-12 functional-communicational score, Actual Mean ± SD","[1]; Week 16, 50 mg/d, n=106",3.9 ± 2.2
same,"TBF-12 functional-communicational score, Neramexane - Placebo LSMean Diff. ± SE","[1]; Week 16, 75 mg/d vs placebo",−0.4 ± 0.2
same,"TBF-12 functional-communicational score, Actual Mean ± SD","[1]; Week 16, 75 mg/d, n=99",4.0 ± 2.5
same,"TBF-12 functional-communicational score, Change Mean ± SD",[1]; 25 mg/d,−0.7 ± 1.5
same,"TBF-12 functional-communicational score, Change LSMean",[1]; 25 mg/d,−0.7
same,"TBF-12 functional-communicational score, Change Mean ± SD",[1]; 50 mg/d,−1.2 ± 2.0
same,"TBF-12 functional-communicational score, Change LSMean",[1]; 50 mg/d,−1.2
same,"TBF-12 functional-communicational score, Change Mean ± SD",[1]; 75 mg/d,−1.1 ± 1.8
same,"TBF-12 functional-communicational score, Change LSMean",[1]; 75 mg/d,−1.0
same,effect on cognitive function in patients with tinnitus (conclusion of Example 1),[1]; patients with tinnitus,capability to improve cognitive function
same,Concentration: Affected (%),[2]; [4],(82.1) %
same,Concentration: Affected n,[2]; [4],87
same,Concentration: No effect (%),[2]; [4],(12.3) %
same,Concentration: No effect n,[2]; [4],13
same,Concentration: Prevented (%),[2]; [4],(5.7) %
same,Concentration: Prevented n,[2]; [4],6
same,Concentration: Affected (%),[2]; [5],(84.0) %
same,Concentration: Affected n,[2]; [5],89
same,Concentration: No effect (%),[2]; [5],(9.4) %
same,Concentration: No effect n,[2]; [5],10
same,Concentration: Prevented (%),[2]; [5],(6.6) %
same,Concentration: Prevented n,[2]; [5],7
same,Concentration: Affected (%),[2]; [6],(73.7) %
same,Concentration: Affected n,[2]; [6],73
same,Concentration: No effect (%),[2]; [6],(19.2) %
same,Concentration: No effect n,[2]; [6],19
same,Concentration: Prevented (%),[2]; [6],(7.1) %
same,Concentration: Prevented n,[2]; [6],7
same,Concentration: Affected (%),[2]; [7],(81.2) %
same,Concentration: Affected n,[2]; [7],82
same,Concentration: No effect (%),[2]; [7],(17.8) %
same,Concentration: No effect n,[2]; [7],18
same,Concentration: Prevented (%),[2]; [7],(1.0) %
same,Concentration: Prevented n,[2]; [7],1
same,Concentration: Affected (%),[2]; [8],(73.8) %
same,Concentration: Affected n,[2]; [8],76
same,Concentration: No effect (%),[2]; [8],(24.3) %
same,Concentration: No effect n,[2]; [8],25
same,Concentration: Prevented (%),[2]; [8],(1.9) %
same,Concentration: Prevented n,[2]; [8],2
same,Concentration: Affected (%),[2]; [9],(73.1) %
same,Concentration: Affected n,[2]; [9],68
same,Concentration: No effect (%),[2]; [9],(23.7) %
same,Concentration: No effect n,[2]; [9],22
same,Concentration: Prevented (%),[2]; [9],(3.2) %
same,Concentration: Prevented n,[2]; [9],3
same,activity at α9/α10 nicotinic receptor,[3],α9/α10 nicotinic receptor antagonist
CC1(C)CC(C)(C)CC(C)(N)C1.CS(=O)(=O)O [neramexane mesylate],improvement of tinnitus as measured by the THF-12,"[1]; final daily doses of 50 or 75 mg, 16-week double-blind treatment, distinct from placebo or low-dose (25 mg)",clear improvement of their tinnitus
same,"improvement of cognition, item one (concentration) and item two (focused attention) of the functional-communicational subscore of the THF-12",[1]; [10],clear improvement of their cognition
same,"improvement of concentration, question 12/5 of the structured tinnitus interview",[2]; [10],clear improvement of their concentration
